Experimental data as given in ChEMBL document CHEMBL1145294, “Genotoxic activity of halogenated phenylglycine derivatives” (Bioorg Med Chem Lett, 2006).
The source made the active and inactive calls. The rule behind the calls is not given here.

Assays:
[1] = tested on: MCF7; assay: Cytotoxicity against MCF7 cells; assay type: cell-based; conditions: human
[2] = tested on: NCI-H460; assay: Cytotoxicity against NCI-H460 cells; assay type: cell-based; conditions: human
[3] = tested on: SF-268; assay: Cytotoxicity against SF268 cells; assay type: functional, cell-based; conditions: Homo sapiens
[4] = tested on: Saccharomyces cerevisiae; assay: Cytotoxicity against Saccharomyces cerevisiae rad52; assay type: organism-based; conditions: in vivo
[5] = tested on: Saccharomyces cerevisiae; assay: Cytotoxicity against Saccharomyces cerevisiae rad52-ku80; assay type: organism-based; conditions: in vivo
[6] = tested on: Saccharomyces cerevisiae; assay: Cytotoxicity against Saccharomyces cerevisiae rad14; assay type: organism-based; conditions: in vivo
[7] = tested on: Saccharomyces cerevisiae; assay: Cytotoxicity against Saccharomyces cerevisiae mec1-1; assay type: organism-based; conditions: in vivo
[8] = tested on: Saccharomyces cerevisiae; assay: Cytotoxicity against Saccharomyces cerevisiae rad53-11; assay type: organism-based; conditions: in vivo

| Compound | Activity [1] | Activity [2] | Activity [3] | Activity [4] | Activity [5] | Activity [6] | Activity [7] | Activity [8] |
| --- | --- | --- | --- | --- | --- | --- | --- | --- |
| COC(=O)C(Sc1ccccc1)c1ccc(OC)c(I)c1 (stereo unspecified) | Not Active | Not Active | inactive |  |  |  |  |  |
| COC(=O)C(O)c1ccc(OC)c(I)c1 (stereo unspecified) | Not Active | Not Active | inactive |  |  |  |  |  |
| O=C(NC(C(=O)O)c1ccc(O)c(I)c1)c1ccccc1 (stereo unspecified) | Not Active | Not Active | inactive |  |  |  |  |  |
| COC(=O)Nc1ccc(C(NC(=O)c2ccccc2)C(=O)O)cc1I (stereo unspecified) | Not Active | Not Active | inactive |  |  |  |  |  |
| COC(=O)C(c1ccc(OC)c(I)c1)N1C(=O)c2ccccc2C1=O (stereo unspecified) | Not Active | Not Active | inactive |  |  |  |  |  |
| COC(=O)C(NC(=O)c1ccccc1)c1ccc(OC)c(I)c1 (stereo unspecified) | Active | Active | Active | Active | Active | Active | Active | Active |
| COC(=O)C(OC(C)=O)c1ccc(OC)c(I)c1 (stereo unspecified) | Not Active | Not Active | inactive |  |  |  |  |  |
| COC(=O)Cc1ccc(OC)c(I)c1 | Not Active | Not Active | inactive |  |  |  |  |  |
| CC(C)(C)[Si](Oc1ccc(C(NC(=O)c2ccccc2)C(=O)O)cc1I)(c1ccccc1)c1ccccc1 (stereo unspecified) | Active | Active | Active |  |  |  |  |  |
| COc1ccc(C(O)C(=O)O)cc1I (stereo unspecified) | Not Active | Not Active | inactive |  |  |  |  |  |
| COc1ccc(C(OC(C)=O)C(=O)O)cc1I (stereo unspecified) | Not Active | Not Active | inactive |  |  |  |  |  |
| COC(=O)Cc1cc(I)c(OC)c(I)c1 | Not Active | Not Active | inactive |  |  |  |  |  |
| COC(=O)C(NC(=O)c1ccccc1)c1ccc(OC)c(Br)c1 (stereo unspecified) |  |  |  | Active | Active | Active | Active | Active |
